Test results taken from the NIST ThermoML archive (doi:10.1021/je900744x).
Numbers after ± are expanded uncertainties.

Conditions: Liquid, Closed cell (Static) method

vapor or sublimation pressure (254.31 K) [kPa]	vapor or sublimation pressure (259.27 K) [kPa]	vapor or sublimation pressure (269.26 K) [kPa]	vapor or sublimation pressure (279.47 K) [kPa]	vapor or sublimation pressure (287.94 K) [kPa]	SMILES
127 ± 10	156 ± 10	231 ± 10	331 ± 10	437 ± 10	CC(F)F [1,1-difluoroethane]
257 ± 10	303 ± 10	422 ± 10	574 ± 10	727 ± 10	CCC [propane]
